Results published in patent publication US8901118B2, “Compounds and methods for kinase modulation, and indications therefor” (Plexxikon Inc., priority 2010, dated 2014).

Legend:
CYP2D6 = CYP2D6 (Homo sapiens, UniProt P10635); test: CYP2D6 inhibition (fluorescent substrate AMMC); assay type: in vitro ADME; conditions: read-out: Cyp IC50 2D6
How it was run: (§1)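 Test compound titrated 1:1 across ten concentrations; metabolite fluorescence measured after 37 °C incubation of 15 min (CYP1A2), 30 min (CYP2C19, CYP2D6) or 45 min (CYP2C9). IC50 from signal versus concentration.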

CYP3A4(BQ) = CYP3A4(BQ) (Homo sapiens, UniProt P08684); test: CYP3A4(BQ) inhibition; assay type: in vitro ADME; conditions: CYP3A4, substrate BQ; read-out: Cyp IC50 3A4(BQ)
Chain of CYP3A4(BQ) (P08684 whole entry): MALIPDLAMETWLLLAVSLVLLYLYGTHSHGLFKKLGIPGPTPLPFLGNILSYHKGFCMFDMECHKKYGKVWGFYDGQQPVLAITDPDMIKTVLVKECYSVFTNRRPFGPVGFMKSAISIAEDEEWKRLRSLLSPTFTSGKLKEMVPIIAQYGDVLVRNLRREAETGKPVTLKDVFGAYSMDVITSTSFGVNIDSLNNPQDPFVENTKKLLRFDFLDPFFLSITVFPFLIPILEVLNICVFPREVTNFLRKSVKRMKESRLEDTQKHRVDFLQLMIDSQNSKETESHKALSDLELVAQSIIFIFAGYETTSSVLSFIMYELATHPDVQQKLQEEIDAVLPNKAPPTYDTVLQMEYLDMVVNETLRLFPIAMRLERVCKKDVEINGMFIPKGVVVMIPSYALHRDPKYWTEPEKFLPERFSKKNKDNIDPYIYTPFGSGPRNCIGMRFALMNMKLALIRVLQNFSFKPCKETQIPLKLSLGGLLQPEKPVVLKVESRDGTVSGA
How it was run: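 After 30 min incubation at 37° C, plates were read on a Tecan Safire 2 at 409 ex/460 em, and IC50 values came from signal plotted against compound concentration. Enzyme and substrate were sourced from BD Biosciences. The cofactor mix held 1.3% NADPH Regeneration system Solution A, 1.04% Solution B, 5% acetonitrile and 0.05% DMSO.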

CYP1A2 = molecular target: T1, CYP1A2 (Homo sapiens, UniProt P05177); test: CYP1A2 inhibition (fluorescent substrate CEC); assay type: in vitro ADME; conditions: read-out: Cyp IC50 1A2
T1 sequence (P05177 1-516): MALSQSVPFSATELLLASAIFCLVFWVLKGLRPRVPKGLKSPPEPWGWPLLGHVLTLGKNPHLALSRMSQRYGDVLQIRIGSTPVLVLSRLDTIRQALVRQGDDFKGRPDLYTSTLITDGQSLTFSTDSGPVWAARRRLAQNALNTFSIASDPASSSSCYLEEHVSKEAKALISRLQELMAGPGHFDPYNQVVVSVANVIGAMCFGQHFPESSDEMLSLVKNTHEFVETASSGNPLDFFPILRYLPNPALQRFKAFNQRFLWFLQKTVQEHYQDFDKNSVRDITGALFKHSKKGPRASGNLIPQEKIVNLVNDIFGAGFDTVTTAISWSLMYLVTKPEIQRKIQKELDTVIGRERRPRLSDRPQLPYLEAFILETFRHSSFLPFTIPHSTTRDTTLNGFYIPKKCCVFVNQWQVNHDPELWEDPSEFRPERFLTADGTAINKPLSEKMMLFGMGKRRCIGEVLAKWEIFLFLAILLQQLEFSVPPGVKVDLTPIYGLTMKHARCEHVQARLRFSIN
How it was run: as §1

[1] = Relative solubility by turbidity in aqueous buffers (pH 1.5, 4.5, 6.8, 7.4); assay type: physicochemical; conditions: for turbidity threshold (L, M, H) 1.4: pH 1.5 (SGF); for turbidity threshold (L, M, H) 4.5: pH 4.5 (SIF); for turbidity threshold (L, M, H) 6.8: pH 6.8 (SIF); for turbidity threshold (L, M, H) 7.4: pH 7.4 (HEPES)
How it was run: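 Reported value: concentration at which optical density at 490, 535 and 650 nm passes 0.01, taken as the mean of the three wavelengths. Buffers were 0.5M NaCl pH 1.5, 0.05M NaH2PO4 pH 4.5 or 6.8, and 10 mM HEPES/150 mM NaCl pH 7.4, each receiving serial 1:1 DMSO dilutions of a 25 mM stock.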

Fms kinase = Fms kinase (Homo sapiens, UniProt P07333); test: Fms kinase biochemical activity assay (AlphaScreen, biotin-(E4Y)10 phosphorylation); conditions: 100 μM ATP; read-out: Biochemical Inhibition IC50 Fms
Chain of Fms kinase (P07333 20-972): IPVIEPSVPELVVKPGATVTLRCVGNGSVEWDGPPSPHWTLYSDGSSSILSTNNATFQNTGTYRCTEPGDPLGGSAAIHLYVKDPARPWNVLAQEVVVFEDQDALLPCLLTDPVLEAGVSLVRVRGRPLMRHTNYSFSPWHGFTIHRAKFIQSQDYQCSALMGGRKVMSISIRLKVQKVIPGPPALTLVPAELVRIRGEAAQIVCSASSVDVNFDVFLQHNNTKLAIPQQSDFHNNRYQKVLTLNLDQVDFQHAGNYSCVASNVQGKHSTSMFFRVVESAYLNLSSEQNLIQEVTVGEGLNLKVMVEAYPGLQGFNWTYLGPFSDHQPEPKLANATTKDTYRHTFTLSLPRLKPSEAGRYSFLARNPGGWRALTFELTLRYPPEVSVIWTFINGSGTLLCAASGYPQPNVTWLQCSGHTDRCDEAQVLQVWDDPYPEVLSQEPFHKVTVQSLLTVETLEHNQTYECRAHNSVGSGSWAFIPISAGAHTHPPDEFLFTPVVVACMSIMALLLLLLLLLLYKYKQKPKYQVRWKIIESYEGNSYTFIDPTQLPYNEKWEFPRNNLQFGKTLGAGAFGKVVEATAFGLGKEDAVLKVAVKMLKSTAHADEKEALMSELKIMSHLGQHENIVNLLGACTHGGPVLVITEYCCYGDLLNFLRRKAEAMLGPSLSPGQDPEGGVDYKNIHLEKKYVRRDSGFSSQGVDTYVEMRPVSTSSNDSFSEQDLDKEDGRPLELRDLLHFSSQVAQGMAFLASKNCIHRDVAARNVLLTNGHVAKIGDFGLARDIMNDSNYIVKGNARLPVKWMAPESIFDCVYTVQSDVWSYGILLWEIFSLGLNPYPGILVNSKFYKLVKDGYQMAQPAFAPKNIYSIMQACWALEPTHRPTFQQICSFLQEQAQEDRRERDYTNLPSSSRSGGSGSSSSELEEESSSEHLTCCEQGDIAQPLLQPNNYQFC
How it was run: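 AlphaScreen read-out (PY20 acceptor, streptavidin donor beads, EDTA stop) of biotin-(E4Y)10 phosphorylation, with IC50 taken from the concentration–signal curve. Reaction: 30 nM substrate, 100 μM ATP, 1 ng/well Fms, Hepes pH 7.5 with Mg2+/Mn2+, 5% DMSO, 20 min at 30 °C.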

Chain of CYP2D6 (P10635 whole entry): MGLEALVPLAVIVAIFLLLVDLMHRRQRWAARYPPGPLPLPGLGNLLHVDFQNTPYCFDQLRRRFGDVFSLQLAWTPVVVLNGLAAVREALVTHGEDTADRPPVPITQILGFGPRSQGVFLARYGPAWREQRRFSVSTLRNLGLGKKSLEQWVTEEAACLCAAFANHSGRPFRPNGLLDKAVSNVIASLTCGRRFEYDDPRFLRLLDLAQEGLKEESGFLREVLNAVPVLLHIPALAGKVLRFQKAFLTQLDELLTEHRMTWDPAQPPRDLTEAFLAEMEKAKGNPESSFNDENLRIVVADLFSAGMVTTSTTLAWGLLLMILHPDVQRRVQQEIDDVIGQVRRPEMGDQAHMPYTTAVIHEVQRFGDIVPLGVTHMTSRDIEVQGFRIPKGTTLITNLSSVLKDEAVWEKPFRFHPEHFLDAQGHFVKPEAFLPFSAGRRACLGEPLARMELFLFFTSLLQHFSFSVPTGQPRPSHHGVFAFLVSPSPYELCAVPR

IC50 (CYP2D6) [µM] | IC50 (CYP3A4(BQ)) [µM] | IC50 (CYP1A2) [µM] | IC50 (Fms kinase) [µM] | Compound | turbidity threshold (L, M, H) 1.4 [1] | turbidity threshold (L, M, H) 4.5 [1] | turbidity threshold (L, M, H) 6.8 [1] | turbidity threshold (L, M, H) 7.4 [1]
> 10 | > 10 | > 10 | < 0.01 | COc1ccc(Nc2ccc(C(=O)c3c[nH]c4ncnc(NC5CCCC5)c34)c(F)n2)cn1 [Compound P-4075, [4-(cyclopentylamino)-7H-pyrrolo[2,3-d]pyrimidin-5-yl]-[2-fluoro-6-[(6-methoxy-3-pyridyl)amino]-3-pyridyl]methanone] | M (moderate solubility if the threshold concentration is 31.3 μM to 250 μM) | L (low solubility if the threshold concentration is <31.3 μM) | L (low solubility if the threshold concentration is <31.3 μM) | L (low solubility if the threshold concentration is <31.3 μM)
> 10 | > 5 | > 10 | < 0.01 | COc1ccc(Nc2ccc(C(=O)c3c[nH]c4ncnc(NC5CCC5)c34)c(F)n2)cn1 [Compound P-4076, [4-(cyclobutylamino)-7H-pyrrolo[2,3-d]pyrimidin-5-yl]-[2-fluoro-6-[(6-methoxy-3-pyridyl)amino]-3-pyridyl]methanone] | M (moderate solubility if the threshold concentration is 31.3 μM to 250 μM) | M (moderate solubility if the threshold concentration is 31.3 μM to 250 μM) | M (moderate solubility if the threshold concentration is 31.3 μM to 250 μM) | L (low solubility if the threshold concentration is <31.3 μM)
> 10 | > 10 | 5 to 10 | < 0.1 | CCC(CC)Nc1ncnc2[nH]cc(C(=O)c3ccc(Nc4ccc(OC)nc4)nc3F)c12 [Compound P-4077, [4-(1-ethylpropylamino)-7H-pyrrolo[2,3-d]pyrimidin-5-yl]-[2-fluoro-6-[(6-methoxy-3-pyridyl)amino]-3-pyridyl]methanone] | M (moderate solubility if the threshold concentration is 31.3 μM to 250 μM) | L (low solubility if the threshold concentration is <31.3 μM) | L (low solubility if the threshold concentration is <31.3 μM) | L (low solubility if the threshold concentration is <31.3 μM)
> 10 | > 10 | 5 to 10 | < 0.01 | CCC(C)Nc1ncnc2[nH]cc(C(=O)c3ccc(Nc4ccc(OC)nc4)nc3F)c12 (stereo not drawn) [Compound P-4078, [2-fluoro-6-[(6-methoxy-3-pyridyl)amino]-3-pyridyl]-[4-(sec-butylamino)-7H-pyrrolo[2,3-d]pyrimidin-5-yl]methanone] | M (moderate solubility if the threshold concentration is 31.3 μM to 250 μM) | L (low solubility if the threshold concentration is <31.3 μM) | L (low solubility if the threshold concentration is <31.3 μM) | L (low solubility if the threshold concentration is <31.3 μM)

The remaining lines, values behind:

Compound | IC50 (CYP2D6) [µM] | IC50 (CYP3A4(BQ)) [µM] | IC50 (CYP1A2) [µM] | IC50 (Fms kinase) [µM] | turbidity threshold (L, M, H) 1.4 [1] | turbidity threshold (L, M, H) 4.5 [1] | turbidity threshold (L, M, H) 6.8 [1] | turbidity threshold (L, M, H) 7.4 [1]
COc1ccc(Nc2ccc(C(=O)c3c[nH]c4ncnc(N5CCOCC5)c34)c(F)n2)cn1 [Compound P-4070, [2-fluoro-6-[(6-methoxy-3-pyridyl)amino]-3-pyridyl]-(4-morpholino-7H-pyrrolo[2,3-d]pyrimidin-5-yl)methanone] | > 10 | > 10 | > 10 | > 1 | H (high solubility if the threshold concentration is >250 μm) | M (moderate solubility if the threshold concentration is 31.3 μM to 250 μM) | M (moderate solubility if the threshold concentration is 31.3 μM to 250 μM) | M (moderate solubility if the threshold concentration is 31.3 μM to 250 μM)
COc1ccc(Nc2ccc(C(=O)c3c[nH]c4ncnc(NCc5ccc(C(F)(F)F)nc5)c34)c(F)n2)cn1 [Compound P-4071, [2-fluoro-6-[(6-methoxy-3-pyridyl)amino]-3-pyridyl]-[4-[[6-(trifluoromethyl)-3-pyridyl]methylamino]-7H-pyrrolo[2,3-d]pyrimidin-5-yl]methanone] | > 10 | > 10 | > 10 | < 1 | M (moderate solubility if the threshold concentration is 31.3 μM to 250 μM) | M (moderate solubility if the threshold concentration is 31.3 μM to 250 μM) | M (moderate solubility if the threshold concentration is 31.3 μM to 250 μM) | M (moderate solubility if the threshold concentration is 31.3 μM to 250 μM)
COc1ccc(Nc2ccc(C(=O)c3c[nH]c4ncnc(N[C@@H](C)c5ccc(F)cc5)c34)c(F)n2)cn1 [Compound P-4072, [2-fluoro-6-[(6-methoxy-3-pyridyl)amino]-3-pyridyl]-[4-[[(1S)-1-(4-fluorophenyl)ethyl]amino]-7H-pyrrolo[2,3-d]pyrimidin-5-yl]methanone] | 5 to 10 | > 10 | > 10 | < 0.1 | M (moderate solubility if the threshold concentration is 31.3 μM to 250 μM) | L (low solubility if the threshold concentration is <31.3 μM) | L (low solubility if the threshold concentration is <31.3 μM) | L (low solubility if the threshold concentration is <31.3 μM)
COc1ccc(Nc2ccc(C(=O)c3c[nH]c4ncnc(NCC5CCCO5)c34)c(F)n2)cn1 (stereo not drawn) [Compound P-4073, [2-fluoro-6-[(6-methoxy-3-pyridyl)amino]-3-pyridyl]-[4-(tetrahydrofuran-2-ylmethylamino)-7H-pyrrolo[2,3-d]pyrimidin-5-yl]methanone] | > 10 | > 10 | > 10 | < 0.1 | M (moderate solubility if the threshold concentration is 31.3 μM to 250 μM) | L (low solubility if the threshold concentration is <31.3 μM) | L (low solubility if the threshold concentration is <31.3 μM) | L (low solubility if the threshold concentration is <31.3 μM)
CCN1CCC(Nc2ncnc3[nH]cc(C(=O)c4ccc(Nc5ccc(OC)nc5)nc4F)c23)CC1 [Compound P-4074, [4-[(1-ethyl-4-piperidyl)amino]-7H-pyrrolo[2,3-d]pyrimidin-5-yl]-[2-fluoro-6-[(6-methoxy-3-pyridyl)amino]-3-pyridyl]methanone] | > 10 | > 10 | > 10 | < 0.1 | H (high solubility if the threshold concentration is >250 μm) | M (moderate solubility if the threshold concentration is 31.3 μM to 250 μM) | M (moderate solubility if the threshold concentration is 31.3 μM to 250 μM) | M (moderate solubility if the threshold concentration is 31.3 μM to 250 μM)
